The test system of one data set is peptide-pulsed T2 cells. Nature of the data set: Calcein-AM release cytotoxicity assay, peptide-pulsed T2 cells. The format is cell-based, human. The conditions noted are these: 20:1 effector:target ratio, 4-hour calcein-AM release, T2 cells pulsed with corresponding peptide, peptide-specific CTLs from healthy female donors. The protocol:
Healthy donor lymphocytes and DCs were cocultured in 6-well plates supplemented with IL7 and IL2, as described above. On days 12–14, cultured peptide-specific CTLs were harvested and peptide-specific cytotoxicity was assessed using a standard 4-hour Calcein-AM (Sigma-Aldrich) release assay as described previously ([24]). Briefly, target cells, including T2 cells pulsed with mutant and wild-type peptides, were labeled with 5 µg/mL calcein-AM for 15 minutes in the dark. After two washes, cells were adjusted to 2 × 10^5/mL, plated on a Terasaki plate, and cocultured with peptide-specific CTLs at effector:target ratios of 20:1 and 5:1. After 4 hours of incubation, Trypan blue was added to quench the reaction. The fluorescence was measured using a Cytation 3 Imaging Reader (BioTek). The percentage of specific cell lysis was calculated using the following formula: […]
T2 cells were pulsed with corresponding peptides and labeled with calcein-AM. Cytotoxicity was determined by a standard calcein-AM release assay. Wildtype-1 (A), E380Q (B), Wildtype-2 (C), Y537S (D), D538G (E). Non-pulsed T2 cells were used as negative controls. Statistical significance was determined via unpaired Student t test. Data represent the average of three to four experiments from separate healthy female donors run in triplicate. *, P < 0.05; ***, P < 0.001.

The test system of data set [1] is peptide-specific CD8+ T cells from PBMC of healthy female HLA-A2 positive donors. The data set is described as follows: Peptide-specific CTL tetramer assay and expansion. The format is cell-based, human. The conditions noted are these: for tetramer expansion: post- vs pre-expansion, in words; for average frequency fold change (vs. pre-expansion): after CTL expansion with peptide-pulsed DCs, IL7, IL2; for average frequency fold change (vs. pre-expansion) / average frequency of peptide-specific CTLs in peripheral blood: tetramer staining; for average frequency of peptide-specific CTLs in peripheral blood: pre-expansion, PBMC of healthy females, 3 donors. The source says:
Healthy donor peripheral blood samples were purchased from the local blood bank and used under an MD Anderson Cancer Center Institutional Review Board–approved protocol. Because the samples came from deidentified healthy donors, the Institutional Review Board determined that informed consent was not required. Peripheral blood mononuclear cells (PBMC) were isolated from buffy coats of healthy female HLA-A2 positive donors by Ficoll/Histopaque (Sigma-Aldrich) density gradient centrifugation and split equally into two groups. One group of PBMC was used to assess the pre-expansion frequency of the peptide-specific CTLs. These cells were immediately stained with FITC-conjugated anti-CD3 and APC-H7–conjugated anti-CD8 to select for CD8^+ T cells. Pacific blue (PB)-conjugated anti-CD4, anti-CD14, anti-CD16, anti-CD19, and anti-CD56 (BD Biosciences) were used as a dump gate to gate out other immune cell types; PE-conjugated mutant peptide and APC-conjugated wild-type peptide tetramers (Baylor College of Medicine, MHC tetramer core, Houston, TX) were used to enumerate the percentage of peptide-specific CD8^+ T cells present in healthy PBMCs. The analysis was performed using flow cytometry.
The second group of donor PBMC was used to assess the expansion potential of the peptide-specific CTLs. To expand peptide-specific CTLs, dendritic cells (DC) were matured from adherent monocytes by the addition of GMCSF (100 ng/mL, Sanoti), IL4 (50 ng/mL, rhIL4, Tonbo Biosciences), and TNFα (25 ng/mL, BioLegend). Lymphocytes from the same donor were separated and cocultured with 40 µg/mL of mutant and wild-type peptides. After 5 days, DCs were harvested and cocultured with autologous CD8^+ T cells for an additional 7 days. The cocultured cells were supplemented with IL7 (10 ng/mL; BioLegend) for CTL activation and IL2 (25 ng/mL; R&D Systems) for CTL expansion. After CTL activation and expansion, cells were stained and analyzed as described above.
FIGURE 3 Peptide-specific expansion of CD8^+ T cells. PBMCs from healthy donors were isolated and expanded as described in the Materials and Methods. Tetramer staining was performed pre- and post-expansion to quantify frequencies of peptide-specific CD8^+ T cells. A, Wildtype-1, E380Q. B, Wildtype-2, Y537S, D538G. Data represents three independent experiments, from 3 separate donors, performed in triplicate. Statistical significance was determined via comparison of pre-expansion versus post-expansion CD8^+tetramer^+ population using unpaired Student t test. *, P < 0.05.

The target in the next data set is T1, HLA-A*0201 on T2 cells (Homo sapiens, UniProt P04439, D140Y/D185E/D98H/E176V/E277Q/G131W/G231S/I119V/I121R/I166T/I218V/L300P/L318F/N151K/N90K/P208A/P217A/Q86G/Q94H/R138H/R169H/T345S).
T1 construct: T2 cells were pulsed with indicated peptides for 8–12 hours, washed, and then stained for surface HLA-A*0201 expression; host or cells: T2 cells
The data set is described as follows: T2 dissociation (stability) assay. Format: cell-based. Particulars: peptide:HLA-A*0201 dissociation; T2 cells pulsed 8–12 hours, washed; MFI normalized to time 0; linear regression; three independent experiments in triplicate. The procedure: T2 binding assays were performed as described previously ([23]). […] Surface expression of HLA-A*0201 in T2 cells was determined by staining with an anti-HLA-A2 mAb (BB7.2, BD Biosciences). The median fluorescence intensity (MFI) was measured using a FACSCando II (BD Biosciences). The peptide half-life was calculated by linear regression using GraphPad Prism software.
FIGURE 2 Kinetics of peptide: HLA-A*0201 dissociation. T2 cells were pulsed with indicated peptides for 8–12 hours, washed, and then stained for surface HLA-A*0201 expression at indicated timepoints for wildtype-1 and E380Q (A), wildtype-2 and Y537S (B), wildtype-2 and D538G (C). MFI for each timepoint was normalized to initial staining (time = 0). Linear regression analysis was used to plot lines of best fit for each individual peptide, and half-life for each peptide is shown in Table 2. Data are pooled from three independent experiments performed in triplicate.

For “PLYDLLLEM [Wildtype-2, wild-type ESR1-derived nonameric peptide associated with Y537S and D538G]”, the specific cytotoxicity with peptide-pulsed T2 cells was 13.27%. For the same sequence, the tetramer expansion entry in data set [1] was “modest expansion”. Further, the “Half-Life” value on HLA-A*0201 on T2 cells came to 5.9 h.

In the case of “LLQCAWLEI [E380Q, ESR1-derived nonameric peptide with E380Q mutation]”, the specific cytotoxicity in the data set with peptide-pulsed T2 cells was 28.45%. In data set [1], the “average frequency fold change (vs. pre-expansion)” value (from here on “average frequency fold change”) came to 5.77 fold and the “average frequency of peptide-specific CTLs in peripheral blood” value (from here on “average frequency … in peripheral blood”) is 0.03%. Besides, the “Half-Life” value on HLA-A*0201 on T2 cells is 7.2 h.

As to “PLSDLLLEM [Y537S, ESR1-derived nonameric peptide with Y537S mutation]”, the specific cytotoxicity in the data set with peptide-pulsed T2 cells was 30.03%. In data set [1], the “average frequency fold change” value stood at 4.85 fold and the “average frequency … in peripheral blood” value was 0.18%. The “Half-Life” value at HLA-A*0201 on T2 cells was 6.2 h.

On to “PLYGLLLEM [D538G, ESR1-derived nonameric peptide with D538G mutation]”, for which the specific cytotoxicity with peptide-pulsed T2 cells was 30.48%. Further, in data set [1], the “average frequency fold change” value was found to be 4.31 fold and the “average frequency … in peripheral blood” value stood at 0.17%. Also, the “Half-Life” value at HLA-A*0201 on T2 cells was 6.0 h.

As for “LLECAWLEI [Wildtype-1, wild-type ESR1-derived nonameric peptide associated with E380Q]”, the specific cytotoxicity with peptide-pulsed T2 cells is reported as 25.99%. The tetramer expansion result in data set [1] is “did not show tetramer expansion”. Besides, the “Half-Life” value at HLA-A*0201 on T2 cells came out at 5.4 h.

The record behind these values is PMC10883292, “Estrogen Receptor Mutations as Novel Targets for Immunotherapy in Metastatic Estrogen Receptor–positive Breast Cancer” (Cancer Research Communications, 2024).
